Holding throughout (format): functional
The test system of experiment [1] is Escherichia coli. As to the kind of experiment: Compound was evaluated for antibacterial activity against Escherichia coli DC 2.
Experiment [2] relates to Staphylococcus aureus. As to the kind of experiment: Compound was evaluated for antibacterial activity against Staphylococcus aureus Smith.
For experiment [3], the system named is Pseudomonas aeruginosa. As to the kind of experiment: Compound was evaluated for antibacterial activity against Pseudomonas aeruginosa 1771M.
For experiment [4], the system named is Pseudomonas aeruginosa. Nature of the experiment: Compound was evaluated for antibacterial activity against Pseudomonas aeruginosa C-1198.
A further experiment relates to Proteus vulgaris. As to the kind of experiment: Compound was evaluated for antibacterial activity against Proteus vulgaris GN76.
The next experiment has as its system Serratia marcescens. Nature of the experiment: Compound was evaluated for antibacterial activity against Serratia marcescens IFO 12648.
The subject of experiment [5] is Escherichia coli. Nature of the experiment: Compound was evaluated for antibacterial activity against Escherichia coli DC 0.
A further experiment concerns Klebsiella pneumoniae. Nature of the experiment: Compound was evaluated for antibacterial activity against Klebsiella pneumoniae NCTC 9632.
Another experiment deals with Streptococcus pneumoniae. Nature of the experiment: Compound was evaluated for antibacterial activity against Streptococcus pneumoniae type I.
For experiment [6], the system named is Pseudomonas aeruginosa. As to the kind of experiment: Compound was evaluated for antibacterial activity against Pseudomonas aeruginosa 9027.
Experiment [7] has as its system Pseudomonas aeruginosa. Nature of the experiment: Compound was evaluated for antibacterial activity against Pseudomonas aeruginosa 1771.
Experiment [8] has as its system Staphylococcus aureus. Nature of the experiment: Compound was evaluated for antibacterial activity against Staphylococcus aureus C2379 (MRSA).
In a further experiment the test system is Enterobacter cloacae. Nature of the experiment: Compound was evaluated for antibacterial activity against Enterobacter cloacae P99.
The test system of a further experiment is Streptococcus pyogenes. As to the kind of experiment: Compound was evaluated for antibacterial activity against Streptococcus pyogenes A77.

≈ marks a conversion by molar mass, not a printed value.

For `CC(=O)N(O)CCO/N=C(\C(=O)N[C@@H]1C(=O)N2C(C(=O)O)=C(CSc3nc(C)c(CC(=O)O)s3)CS[C@H]12)c1csc(N)n1`, the MIC was determined as 0.098 µg/mL (≈ 0.146 µM) against Escherichia coli [1]; 12.5 µg/mL (≈ 18.6 µM) in the experiment on Staphylococcus aureus [2]; 0.391 µg/mL (≈ 0.582 µM) in the experiment on Pseudomonas aeruginosa [3]; 50 µg/mL (≈ 74.4 µM) against Pseudomonas aeruginosa [4]; 0.049 µg/mL (≈ 0.0729 µM) with Proteus vulgaris; 1.56 µg/mL (≈ 2.33 µM) in the experiment on Serratia marcescens. In addition, the minimum inhibitory concentration (MIC) with Escherichia coli [5] came to 0.781 µg/mL (≈ 1.16 µM); in the experiment with Klebsiella pneumoniae, 0.098 µg/mL (≈ 0.146 µM); in the experiment with Streptococcus pneumoniae, 0.049 µg/mL (≈ 0.0729 µM); with Pseudomonas aeruginosa [6], 12.5 µg/mL (≈ 18.6 µM); against Pseudomonas aeruginosa [7], 3.12 µg/mL (≈ 4.65 µM); with Staphylococcus aureus [8], 100 µg/mL (≈ 149 µM). Besides, the MIC came out at 50 µg/mL (≈ 74.4 µM) in the experiment on Enterobacter cloacae and 0.013 µg/mL (≈ 0.0194 µM) in the experiment on Streptococcus pyogenes.

Turning to `CC(=O)N(O)CCO/N=C(\C(=O)N[C@@H]1C(=O)N2C(C(=O)[O-])=C(C[n+]3ccccc3)CS[C@H]12)c1csc(N)n1`, the minimal inhibitory concentration (MIC) against Escherichia coli [1] turned out to be 0.195 µg/mL (≈ 0.347 µM); with Staphylococcus aureus [2], 3.12 µg/mL (≈ 5.56 µM); in the experiment with Pseudomonas aeruginosa [3], 0.391 µg/mL (≈ 0.696 µM); against Pseudomonas aeruginosa [4], 25 µg/mL (≈ 44.5 µM); with Proteus vulgaris, 0.781 µg/mL (≈ 1.39 µM); in the experiment with Serratia marcescens, 0.391 µg/mL (≈ 0.696 µM). Besides, the minimum inhibitory concentration (MIC) stood at 0.781 µg/mL (≈ 1.39 µM) against Escherichia coli [5]; 0.098 µg/mL (≈ 0.175 µM) with Klebsiella pneumoniae; 0.049 µg/mL (≈ 0.0873 µM) against Streptococcus pneumoniae; 6.25 µg/mL (≈ 11.1 µM) with Pseudomonas aeruginosa [6]; 0.781 µg/mL (≈ 1.39 µM) against Pseudomonas aeruginosa [7]; 12.5 µg/mL (≈ 22.3 µM) in the experiment on Staphylococcus aureus [8]. The figures for the MIC in the experiment with Enterobacter cloacae and against Streptococcus pyogenes were 25 µg/mL (≈ 44.5 µM) and 0.007 µg/mL (≈ 0.0125 µM), respectively.

For the compound `CC(=O)N(O)CCO/N=C(\C(=O)N[C@@H]1C(=O)N2C(C(=O)[O-])=C(CSc3cccc4[n+]3CCN4)CS[C@H]12)c1csc(N)n1`, the minimum inhibitory concentration (MIC) stood at 1.56 µg/mL (≈ 2.46 µM) with Escherichia coli [1]; 1.56 µg/mL (≈ 2.46 µM) with Staphylococcus aureus [2]; 3.12 µg/mL (≈ 4.92 µM) in the experiment with Pseudomonas aeruginosa [3]; 50 µg/mL (≈ 78.8 µM) against Pseudomonas aeruginosa [4]; 3.12 µg/mL (≈ 4.92 µM) in the experiment with Proteus vulgaris; 3.12 µg/mL (≈ 4.92 µM) with Serratia marcescens. Also, the minimal inhibitory concentration (MIC) in the experiment with Escherichia coli [5] worked out at 1.56 µg/mL (≈ 2.46 µM); in the experiment on Klebsiella pneumoniae, 0.025 µg/mL (≈ 0.0394 µM); in the experiment on Streptococcus pneumoniae, 0.025 µg/mL (≈ 0.0394 µM); in the experiment with Pseudomonas aeruginosa [6], 12.5 µg/mL (≈ 19.7 µM); against Pseudomonas aeruginosa [7], 3.12 µg/mL (≈ 4.92 µM); in the experiment with Staphylococcus aureus [8], 12.5 µg/mL (≈ 19.7 µM). For the same compound, the MIC turned out to be 50 µg/mL (≈ 78.8 µM) with Enterobacter cloacae and 0.025 µg/mL (≈ 0.0394 µM) against Streptococcus pyogenes.

On to `CC(=O)N(O)CCO/N=C(\C(=O)N[C@@H]1C(=O)N2C(C(=O)[O-])=C(C[n+]3cccc4c3CCC4)CS[C@H]12)c1csc(N)n1`, for which the MIC with Escherichia coli [1] is 0.195 µg/mL (≈ 0.324 µM); with Staphylococcus aureus [2], 0.781 µg/mL (≈ 1.3 µM); in the experiment on Pseudomonas aeruginosa [3] it was 0.781 µg/mL (≈ 1.3 µM); with Pseudomonas aeruginosa [4], 50 µg/mL (≈ 83.1 µM); against Proteus vulgaris, 1.56 µg/mL (≈ 2.6 µM); against Serratia marcescens, 0.781 µg/mL (≈ 1.3 µM). Further, the minimal inhibitory concentration (MIC) is 0.391 µg/mL (≈ 0.65 µM) in the experiment on Escherichia coli [5]; 0.195 µg/mL (≈ 0.324 µM) with Klebsiella pneumoniae; 0.025 µg/mL (≈ 0.0416 µM) with Streptococcus pneumoniae; 6.25 µg/mL (≈ 10.4 µM) against Pseudomonas aeruginosa [6]; 1.56 µg/mL (≈ 2.6 µM) with Pseudomonas aeruginosa [7]; 6.25 µg/mL (≈ 10.4 µM) in the experiment on Staphylococcus aureus [8]. The minimal inhibitory concentration (MIC) is 25 µg/mL (≈ 41.6 µM) against Enterobacter cloacae and 0.004 µg/mL (≈ 0.00665 µM) against Streptococcus pyogenes.

Consider `CC(=O)N(O)CCO/N=C(\C(=O)N[C@@H]1C(=O)N2C(C(=O)[O-])=C(C[n+]3ccc(CN(O)C(C)=O)cc3)CS[C@H]12)c1csc(N)n1`, for which the MIC was 0.391 µg/mL (≈ 0.603 µM) with Escherichia coli [1]; 12.5 µg/mL (≈ 19.3 µM) in the experiment on Staphylococcus aureus [2]; 6.25 µg/mL (≈ 9.63 µM) in the experiment with Pseudomonas aeruginosa [3]; above 100 µg/mL in the experiment with Pseudomonas aeruginosa [4]; 6.25 µg/mL (≈ 9.63 µM) against Proteus vulgaris; 12.5 µg/mL (≈ 19.3 µM) in the experiment on Serratia marcescens. Also, the MIC against Escherichia coli [5] turned out to be 12.5 µg/mL (≈ 19.3 µM); in the experiment on Klebsiella pneumoniae, 0.781 µg/mL (≈ 1.2 µM); with Streptococcus pneumoniae, 0.049 µg/mL (≈ 0.0755 µM); with Pseudomonas aeruginosa [6] it was 50 µg/mL (≈ 77.1 µM); with Pseudomonas aeruginosa [7], 25 µg/mL (≈ 38.5 µM); against Staphylococcus aureus [8], 50 µg/mL (≈ 77.1 µM). Further, the minimal inhibitory concentration (MIC) with Enterobacter cloacae was found to be 50 µg/mL (≈ 77.1 µM); against Streptococcus pyogenes, 0.007 µg/mL (≈ 0.0108 µM).

`CC(C)(O/N=C(\C(=O)N[C@@H]1C(=O)N2C(C(=O)[O-])=C(C[n+]3ccccc3)CS[C@H]12)c1csc(N)n1)C(=O)O` [CEFTAZIDIME]: the MIC in the experiment on Escherichia coli [1] is 0.098 µg/mL (≈ 0.179 µM); in the experiment on Staphylococcus aureus [2], 6.25 µg/mL (≈ 11.4 µM); in the experiment on Pseudomonas aeruginosa [3], 0.391 µg/mL (≈ 0.715 µM); in the experiment with Pseudomonas aeruginosa [4], above 100 µg/mL; with Proteus vulgaris, 0.049 µg/mL (≈ 0.0896 µM); in the experiment with Serratia marcescens it was 0.098 µg/mL (≈ 0.179 µM). Also, the MIC was determined as 0.195 µg/mL (≈ 0.357 µM) with Escherichia coli [5]; 0.049 µg/mL (≈ 0.0896 µM) with Klebsiella pneumoniae; 0.195 µg/mL (≈ 0.357 µM) against Streptococcus pneumoniae; 3.12 µg/mL (≈ 5.72 µM) in the experiment on Pseudomonas aeruginosa [6]; 0.781 µg/mL (≈ 1.43 µM) against Pseudomonas aeruginosa [7]; 50 µg/mL (≈ 91.5 µM) in the experiment on Staphylococcus aureus [8]. The MIC with Enterobacter cloacae was above 100 µg/mL; in the experiment with Streptococcus pyogenes, 0.098 µg/mL (≈ 0.179 µM).

One may read the MIC as the lowest concentration that inhibits growth of the organism. Low readings indicate inhibition by little substance, high ones a need for much substance.

The values above are taken from ChEMBL document CHEMBL1129155, “Synthesis and antibacterial activity of cephalosporins having hydroxamic acid at C-7 position” (1996).
